Where a SMILES comes first, the peptide text is derived from it.
Columns and labels:
[1] = system: PMNs; assay: PMN oxidative burst (SOD-inhibitable reduction of cytochrome c); format: cell-based, human; settings: TNF-α-primed adherent PMNs; peptide 20 μg/ml, dhCB 1 μg/ml
Procedure: Oxidative burst of adherent PMNs was quantified by measuring the superoxide dismutase (SOD)-inhibitable reduction of cytochrome c as described (67). Briefly, PMNs (1.5×10^6/ml in HBSS-0.1% human serum albumin) were incubated in polypropylene tubes (1 hour; 37° C.) in a shaking water bath with or without the PAK peptide (20 μg/ml). PMNs were transferred to a fibrinogen-coated 96 well tissue culture plate. Cytochrome c (1.44 mg/ml) and catalase (0.062 mg/ml) (both Sigma) were added to wells with or without TNF-alpha (10 U/ml). Optical density was measured at indicated times against matched controls with SOD at 550 nm. Some PMNs were treated with dihydrocytochalasin B (dhCB) (1 μg/ml) to disrupt cell spreading on the surface (68). These samples served as negative control.

[2] = In vivo distribution of the PAK inhibitory peptide (flow cytometry); settings: for uptake of peptide by blood neutrophils: 12 hours before sample
Procedure: Six hours after injection, PAK-positive cells were identified by flow cytometry and their expression of CD31 and CD45 was determined. In additional experiments, mice inhaled LPS after an intraperitoneal injection of the fluorescent PAK peptide. Twelve hours later, PMNs were identified in blood, lungs, and BAL by their expression of CD45, GR-1, and 7/4 and investigated for their peptide uptake. In some experiments, lungs from these mice were fixed for confocal microscopy.

[3] = system: LPS-induced PMN migration into the lung; assay: Murine model of acute lung injury: LPS-induced PMN trafficking in the lung; settings: application of the peptide in mice in vivo
Procedure: Wild type male C57B1/6 mice were obtained from Jackson Labs (Bar Harbor, Me.). […] Mice were eight to twelve weeks of age. Up to four mice were exposed to aerosolized LPS in a custom-built cylindrical chamber (20×9 cm) connected to an air nebulizer (MicroAir, Omron Healthcare, Vernon Hills, Ill.). […] Control mice were exposed to saline aerosol.
PMN recruitment into the different compartments of the lung pulmonary vasculature, interstitium, alveolar airspace) was assessed as described (81). […] After 5 minutes, mice were euthanized and non-adherent PMN were removed from the pulmonary vasculature by flushing 10 ml of PBS at 25 cm H20 through the spontaneously beating right ventricle. BAL was withdrawn and lungs were removed, minced, and digested in the presence of excess unlabeled anti-GR-1 to prevent possible binding of the injected antibody to extravascular PMN. A cell suspension was prepared by passing the digested lungs through a 70 μm cell strainer (BD Falcon, Bedford, Mass.). Total cells in BAL and lung were counted and percentage of PMNs determined by flow cytometry. […] In the lung, the expression of GR-1 was used to distinguish intravascular (CD45+7/4+GR-1^+) from interstitial (CD45+7/4+GR-1^−) PMNs, which were not reached by the injected antibody 82.

[4] = biological target: adaptor protein Nck (UniProt P16333); assay: cell-based or functional assay

With C=C1[C@@H](C)[C@H]2[C@H](Cc3ccccc3)NC(=O)[C@]23OC(=O)CC[C@H](O)CCC[C@@H](C)C/C=C/[C@H]3[C@@H]1O [dihydrocytochalasin B] the “adhesion-induced oxidative burst (superoxide production)” value [1] was “reduced”.

With CSCC[C@H](NC(=O)[C@@H](NC(=O)[C@H](CO)NC(=O)[C@@H](NC(=O)[C@H](CC(N)=O)NC(=O)[C@H](CCCNC(=N)N)NC(=O)[C@H](CCSC)NC(=O)[C@@H]1CCCN1C(=O)[C@@H]1CCCN1C(=O)[C@H](C)NC(=O)[C@@H]1CCCN1C(=O)[C@@H]1CCCN1C(=O)[C@H](CCCCN)NC(=O)CNC(=O)[C@H](CCCNC(=N)N)NC(=O)[C@H](CCCNC(=N)N)NC(=O)[C@H](CCCNC(=N)N)NC(=O)[C@H](CCC(N)=O)NC(=O)[C@H](CCCNC(=N)N)NC(=O)[C@H](CCCNC(=N)N)NC(=O)[C@H](CCCCN)NC(=O)[C@H](CCCCN)NC(=O)[C@H](CCCNC(=N)N)NC(=O)CNC(=O)[C@@H](N)Cc1ccc(O)cc1)[C@@H](C)O)[C@@H](C)O)C(=O)O [tat-PAK peptide] (H-YGRKKRRQRRRGKPPAPPMRNTSTM-OH; N-terminus and C-terminus assumed) the “PMNs in the BAL containing peptide” value ([2]; i.v. 1 mg, 12 h, LPS) was “almost all neutrophils found in the BAL are non-fluorescent”, the “PMNs in the lung containing peptide” value ([2]; i.v. 1 mg, 12 h, LPS) was “one-third” and the “uptake of peptide by blood neutrophils” value ([2]; i.v. 1 mg) was “taken up by neutrophils”. The “uptake of peptide by blood neutrophils” value ([2]; i.v. 1 mg, listed as PAK peptide) was “most PMNs are PAK peptide+”, the “share of peptide-positive lung cells that are CD45 positive” value ([2]; intraperitoneal, six hours after injection, lung cell suspension) was 80% and the adverse side effects [3] was “no apparent adverse side effects”.

Work on “tat-PAK peptide (inhibitory PAK peptide; first proline-rich domain of PAK fused to the HIV TAT transduction sequence)” yielded a F-actin content in CXCL1-stimulated human PMNs (flow cytometry) [4] of 30 fold.
